Data from patent US20110224297A1, “Methods of administering prostratin and structural analogs thereof” (priority 2008, published 2011).

Key:
[1] = test system: resting CD4+ T cells derived from HIV positive patients; test: Induction of HIV-1 expression in resting CD4+ T cells from HIV positive patients on HAART (p24, co-culture); format: cell-based, human; details: VPA at 1 mM added to cultures treated with prostratin
Method: The ability of prostratin to induce HIV-1 expression in cultures of highly purified resting CD4+ T cells derived from six HIV positive patients on HAART therapy with undetectable plasma viral load (<50 copies/ml) and CD4 cell counts above 350 cells/mm^3 was evaluated. PBMCs were separated using Ficol Hypaque gradient and resting CD4+ T cells were purified using commercially available CD4+ T cell isolation kit (Miltenyi Biotec) Immediately after purification, resting CD4+ T cells were treated for 3 days with two antiretrovirals to which the patient had not previously been exposed. Antiretrovirals were used at concentrations 10 times the 50% inhibitory concentration for wild-type HIV-1 to ensure elimination of any actively replicating virus. Three days after in vitro incubation with antiretrovirals, cells were washed and incubated for 5 h, 24 h, or 48 h with prostratin (50-500 ng/ml), in the absence or presence of 1 mM valproic acid (sodium salt, SIGMA), 10 μg/ml PHA (SIGMA), 50 U IL-2/ml (AIDS depository of reagents, NIH), or in the absence of drugs. At the end of each incubation period, cells were co-cultured with CD8-depleted PBMCs from healthy donors. P24 was measured at days 0, 4, 7, 14, 21, 28, 35 and 42 days.

[2] = In vitro metabolism in rat primary hepatocytes; format: in vitro ADME
Method: (§1) ^3H-Prostratin was incubated in hepatocyte preparations with 0.75×10^6 hepatocytes/ml for 0, 30, 60, and 120 minutes. Hepatocytes were suspended in William's E medium and incubated with 1 μM or 4 μM ^3H-Prostratin at 37° C. in an atmosphere of 4.7-4.8% CO2. Hepatocyte incubations were terminated by addition of acetonitrile. Incubations were profiled for ^3H-Prostratin and metabolites by high performance liquid chromatography using a radioactivity detector.
(§2) Metabolites were subsequently analyzed by liquid chromatography/tandem mass spectrometry (LC/MS/MS) for putative identification. Seven predominant metabolites, identified as M1 through M6 according to their chromatographic order of elution, were detected among both genders of the three species, including two co-eluting metabolites labeled as M3A or M3B. Among the seven metabolites, five were putatively identified by LC/MS/MS, while structures could not be proposed for M2 and M3B.

[3] = Extent of metabolism by hepatocytes, rank order across species and genders; format: in vitro ADME, rat, monkey, human; details: 1 μM and 4 μM; up to 120 minutes
Method: as §1, §2

[4] = Quantitative whole body autoradiography of rats following oral administration; format: in vivo, Long Evans rats
Method: The absorption and distribution of ^3H-Prostratin were studied in male and female rats following a single oral administration at 0.2 mg/kg. Four Long Evans male and four Long Evans female rats, after an overnight fast, each received a single oral administration of ^3H-Prostratin as a solution in saline containing <1% of ethanol at a target dose of 0.2 mg/kg. For both males and females, one animal per time point per sex was sacrificed at 1, 4, 8, and 24 hours postdose and carcasses were prepared for whole-body autoradiography (WBA). Blood, plasma, and cellular fraction were analyzed by using liquid scintillation counting (LSC).

[5] = In vitro metabolism in human primary hepatocytes; format: in vitro ADME
Method: as §1, §2

[6] = In vitro metabolism in monkey primary hepatocytes; format: in vitro ADME; details: monkey hepatocytes of both genders
Method: as §1, §2

[7] = female rats, single oral 0.2 mg/kg
[8] = male rats, single oral 0.2 mg/kg

SMILES	enhancement of HIV-1 replication beyond the prostratin effect [1]	number of metabolites detected ([2]; female rat hepatocytes)	number of metabolites detected ([2]; male rat hepatocytes)	gender difference in metabolism ([2]; male rat versus female rat hepatocytes)	extent of metabolism by hepatocytes, rank order [3]	maximum blood concentration of radioactivity [4, 7]	maximum plasma concentration of radioactivity [4, 7]	time of maximum blood and plasma concentrations of radioactivity [4, 7]	gender-related difference in tissue distribution of radioactivity ([4]; female versus male rats)	tissue distribution of radioactivity ([4]; male and female rats, single oral 0.2 mg/kg)	maximum blood concentration of radioactivity [4, 8]	maximum plasma concentration of radioactivity [4, 8]	time of maximum blood concentration of radioactivity [4, 8]	time of maximum plasma concentration of radioactivity [4, 8]	number of metabolites produced ([5]; both genders of human hepatocytes)	extent of metabolism in human compared with male monkeys ([5]; human hepatocytes)	unique human metabolites ([5]; human hepatocytes)	number of metabolites produced [6]
CCCC(CCC)C(=O)O [VPA, valproic acid, reference compound]	did not significantly enhance	–	–	–	–	–	–	–	–	–	–	–	–	–	–	–	–	–
CC(=O)O[C@@]12C[C@@H](C)[C@@]3(O)[C@@H](C=C(CO)C[C@]4(O)C(=O)C(C)=C[C@@H]34)[C@@H]1C2(C)C [^3H-Prostratin]	–	two	Six	more rapid metabolism	male monkey>male rat>>female monkey≈male human≈female human>female rat	59.7 ng equivalents ^3H-Prostratin/g	63.7 ng equivalents ^3H-Prostratin/g	1 hour postdose	distributed more widely in female tissues than male tissues	Most of the radioactivity was found in the gastrointestinal (GI) tract	30.5 ng equivalents ^3H-Prostratin/g	53.5 ng equivalents ^3H-Prostratin/g	1 hours postdose	4 hours postdose	Five	considerably lower	no unique human metabolites	five
